Test results published in ChEMBL document CHEMBL1141727, “Isolation and cytotoxic evaluation of marine sponge-derived norterpene peroxides” (J Nat Prod, 1998).

Assays:
Format in all cases: functional
NCI-H522 = test: Growth inhibition of human NCI-H522 cells
MDA-MB-231 = test: Growth inhibition of human MDA-MB-231 cells
SK-MEL-28 = test: Growth inhibition of human SK-MEL-28 cells
NCI-H322M = test: Growth inhibition of human NCI-H322M cells
SNB-75 = test: Growth inhibition of human SNB75 cells
T47D = test: Growth inhibition of human T47D cells
HT-29 = test: Growth inhibition of human HT-29 cells
SK-MEL-5 = test: Growth inhibition of human SK-MEL-5 cells
SK-MEL-2 = test: Growth inhibition of human SK-MEL-2 cells
OVCAR-8 = test: Growth inhibition of human OVCAR8 cells
OVCAR-3 = test: Growth inhibition of human OVCAR-3 cells
HCC 2998 = test: Growth inhibition of human HCC2998 cells
A549 = test: Growth inhibition of human A549 cells
MDA-MB-435 = test: Growth inhibition of human MDA-MB-435 cells
MCF7 = test: Growth inhibition of human MCF7 cells
UACC-62 = test: Growth inhibition of human UACC62 cells
COLO 205 = test: Growth inhibition of human COLO205 cells
SF-539 = test: Growth inhibition of human SF539 cells
CCRF-CEM = test: Growth inhibition of human CCRF-CEM cells
SN12C = test: Growth inhibition of human SN12C cells
NCI-H460 = test: Growth inhibition of human NCI-H460 cells
L1210 = test: Growth inhibition of mouse L1210 cells assessed as zone units at 50 ug/disk by disk diffusion agar colony formation assay
MOLT-4 = test: Growth inhibition of human MOLT4 cells
[1] = Growth inhibition of mouse M17/ADR cells assessed as zone units at 50 ug/disk by disk diffusion agar colony formation assay
786-0 = test: Growth inhibition of human 786-0 cells
U-251 = test: Growth inhibition of human U251 cells
ACHN = test: Growth inhibition of human ACHN cells
HL-60(TB) = test: Growth inhibition of human HL-60(TB) cells
EKVX = test: Growth inhibition of human EKVX cells
NCI-H23 = test: Growth inhibition of human NCI-H23 cells
Malme-3M = test: Growth inhibition of human MALME-3M cells
BT-549 = test: Growth inhibition of human BT549 cells
CAKI-1 = test: Growth inhibition of human Caki1 cells
P388 = test: Growth inhibition of mouse P388 cells assessed as zone units at 50 ug/disk by disk diffusion agar colony formation assay
KM12 = test: Growth inhibition of human KM12 cells
NCI-H226 = test: Growth inhibition of human NCI-H226 cells
OVCAR-4 = test: Growth inhibition of human OVCAR4 cells
SR = test: Growth inhibition of human SR cells
OVCAR-5 = test: Growth inhibition of human OVCAR5 cells
UO-31 = test: Growth inhibition of human UO31 cells
[2] = Growth inhibition of human Hs 578T cells
HCT-15 = test: Growth inhibition of human HCT15 cells
SF-295 = test: Growth inhibition of human SF295 cells
[3] = Growth inhibition of human […] cells
DU-145 = test: Growth inhibition of human DU145 cells
M14 = test: Growth inhibition of human M14 cells
SW-620 = test: Growth inhibition of human SW620 cells
HOP-62 = test: Growth inhibition of human HOP62 cells
[4] = Growth inhibition of human MCF7/ADR resistant cells; conditions: NCI/ADR-RES
PO3 = test: Growth inhibition of mouse PO3 cells assessed as zone units at 50 ug/disk by disk diffusion agar colony formation assay
UACC-257 = test: Growth inhibition of human UACC257 cells
SK-OV-3 = test: Growth inhibition of human SKOV3 cells
IGROV-1 = test: Growth inhibition of human IGROV1 cells
HCT-116 = test: Growth inhibition of human HCT116 cells
CX-1 = test: Growth inhibition of human CX-1 cells assessed as zone units at 50 ug/disk by disk diffusion agar colony formation assay
RXF 393 = test: Growth inhibition of human […] cells
MDA-N = test: Growth inhibition of human MDA-N cells
A498 = test: Growth inhibition of human A498 cells
HOP-92 = test: Growth inhibition of human HOP92 cells
MC-38 = test: Growth inhibition of mouse C38 cells assessed as zone units at 50 ug/disk by disk diffusion agar colony formation assay
PC-3 = test: Growth inhibition of human PC3 cells

What does the source list for `C=C1CCC[C@H]2[C@](C)(CCC(C)=O)[C@@H](C)CC[C@]12C`?
GI50 (NCI-H522): > 15000 nM; GI50 (MDA-MB-231): > 15000 nM; GI50 (SK-MEL-28): > 15000 nM; GI50 (NCI-H322M): > 15000 nM; GI50 (SNB-75): 3020 nM; GI50 (T47D): > 15000 nM; GI50 (HT-29): > 15000 nM; GI50 (SK-MEL-5): > 15000 nM; GI50 (SK-MEL-2): > 15000 nM; GI50 (OVCAR-8): > 15000 nM; GI50 (OVCAR-3): > 15000 nM; GI50 (HCC 2998): > 15000 nM; GI50 (A549): > 15000 nM; GI50 (MDA-MB-435): > 15000 nM; GI50 (MCF7): > 15000 nM; GI50 (UACC-62): > 15000 nM; GI50 (COLO 205): > 15000 nM; GI50 (SF-539): > 15000 nM; GI50 (CCRF-CEM): > 15000 nM; GI50 (SN12C): > 15000 nM; GI50 (NCI-H460): > 15000 nM; Activity (L1210): 0 Zone units; GI50 (MOLT-4): > 15000 nM; Activity [1]: 0 Zone units; GI50 (786-0): > 15000 nM; GI50 (U-251): > 15000 nM; GI50 (ACHN): > 15000 nM; GI50 (HL-60(TB)): > 15000 nM; GI50 (EKVX): > 15000 nM; GI50 (NCI-H23): > 15000 nM; GI50 (Malme-3M): > 15000 nM; GI50 (BT-549): > 15000 nM; GI50 (CAKI-1): > 15000 nM; Activity (P388): 0 Zone units; GI50 (KM12): > 15000 nM; GI50 (NCI-H226): > 15000 nM; GI50 (OVCAR-4): > 15000 nM; GI50 (SR): > 15000 nM; GI50 (OVCAR-5): > 15000 nM; GI50 (UO-31): > 15000 nM; GI50 [2]: > 15000 nM; GI50 (HCT-15): > 15000 nM; GI50 (SF-295): > 15000 nM; GI50 [3]: > 15000 nM; GI50 (DU-145): > 15000 nM; GI50 (M14): > 15000 nM; GI50 (SW-620): > 15000 nM; GI50 (HOP-62): > 15000 nM; GI50 [4]: > 15000 nM; Activity (PO3): 0 Zone units; GI50 (UACC-257): > 15000 nM; GI50 (SK-OV-3): > 15000 nM; GI50 (IGROV-1): > 15000 nM; GI50 (HCT-116): > 15000 nM; Activity (CX-1): 100 Zone units; GI50 (RXF 393): > 15000 nM; GI50 (MDA-N): > 15000 nM; GI50 (A498): > 15000 nM; GI50 (HOP-92): > 15000 nM

With `C=C1CCC[C@H]2[C@](C)(CC[C@]3(C)CC[C@H]([C@@H](C)C(=O)O)OO3)[C@@H](C)CC[C@]12C` [SIGMOSCEPTRELLIN A] as the molecule, how does the Activity (MC-38) read?
Its Activity is 180 Zone units.

What about the GI50 (NCI-H522) of the same molecule?
Its GI50 is 120 nM.

And the GI50 (MDA-MB-231)?
Its GI50 is 3710 nM.

And the GI50 (PC-3)?
Its GI50 is 1690 nM.

What about the GI50 (SK-MEL-28) of the same molecule?
The GI50 was 3310 nM.

What about the GI50 (NCI-H322M) of the same molecule?
The GI50 was 1910 nM.

And the GI50 (SNB-75)?
The GI50 was 1080 nM.

And the GI50 (T47D)?
The GI50 was 2000 nM.

And the GI50 (HT-29)?
The GI50 was 1570 nM.

And the GI50 (SK-MEL-5)?
Its GI50 is 2680 nM.

And the GI50 (SK-MEL-2)?
The GI50 was 2170 nM.

What about the GI50 (OVCAR-8) of the same molecule?
The GI50 was 1570 nM.

And the GI50 (OVCAR-3)?
The GI50 was 1850 nM.

What about the GI50 (HCC 2998) of the same molecule?
Its GI50 is 1550 nM.

What about the GI50 (A549) of the same molecule?
The GI50 was 1450 nM.

What about the GI50 (MDA-MB-435) of the same molecule?
The GI50 was 1980 nM.

And the GI50 (MCF7)?
The GI50 was 1780 nM.

And the GI50 (UACC-62)?
Its GI50 is 2320 nM.

What about the GI50 (COLO 205) of the same molecule?
The GI50 was 2180 nM.

And the GI50 (SF-539)?
The GI50 was 1610 nM.

What about the GI50 (CCRF-CEM) of the same molecule?
The GI50 was 200 nM.

What about the GI50 (SN12C) of the same molecule?
Its GI50 is 1780 nM.

What about the GI50 (NCI-H460) of the same molecule?
Its GI50 is 1590 nM.

What about the Activity (L1210) of the same molecule?
Its Activity is 230 Zone units.

What about the GI50 (MOLT-4) of the same molecule?
Its GI50 is 980 nM.

And the Activity [1]?
The Activity was 290 Zone units.

And the GI50 (786-0)?
The GI50 was 610 nM.

And the GI50 (U-251)?
Its GI50 is 1730 nM.

What about the GI50 (ACHN) of the same molecule?
Its GI50 is 1380 nM.

What about the GI50 (HL-60(TB)) of the same molecule?
The GI50 was 140 nM.

What about the GI50 (EKVX) of the same molecule?
Its GI50 is 1170 nM.

What about the GI50 (NCI-H23) of the same molecule?
The GI50 was 2020 nM.

What about the GI50 (Malme-3M) of the same molecule?
Its GI50 is 1200 nM.

And the GI50 (BT-549)?
The GI50 was 1810 nM.

What about the GI50 (CAKI-1) of the same molecule?
The GI50 was 1760 nM.

And the Activity (P388)?
Its Activity is 230 Zone units.

What about the GI50 (KM12) of the same molecule?
Its GI50 is 940 nM.

What about the GI50 (NCI-H226) of the same molecule?
Its GI50 is 110 nM.

What about the GI50 (OVCAR-4) of the same molecule?
The GI50 was 1890 nM.

And the GI50 (SR)?
Its GI50 is 1130 nM.

What about the GI50 (OVCAR-5) of the same molecule?
The GI50 was 1740 nM.

And the GI50 (UO-31)?
Its GI50 is 1220 nM.

And the GI50 [2]?
The GI50 was 1080 nM.

What about the GI50 (HCT-15) of the same molecule?
Its GI50 is 1890 nM.

What about the GI50 (SF-295) of the same molecule?
Its GI50 is 1460 nM.

And the GI50 [3]?
Its GI50 is 1710 nM.

And the GI50 (M14)?
The GI50 was 3290 nM.

What about the GI50 (SW-620) of the same molecule?
Its GI50 is 1570 nM.

What about the GI50 (HOP-62) of the same molecule?
Its GI50 is 1050 nM.

What about the GI50 (UACC-257) of the same molecule?
The GI50 was 3680 nM.

And the GI50 (SK-OV-3)?
The GI50 was 1570 nM.

What about the GI50 (IGROV-1) of the same molecule?
The GI50 was 120 nM.

And the GI50 (HCT-116)?
The GI50 was 1800 nM.

What about the Activity (CX-1) of the same molecule?
Its Activity is 220 Zone units.

What about the GI50 (RXF 393) of the same molecule?
Its GI50 is 1220 nM.

And the GI50 (MDA-N)?
Its GI50 is 1830 nM.

What about the GI50 (A498) of the same molecule?
Its GI50 is 1930 nM.

And the GI50 (HOP-92)?
The GI50 was 290 nM.
